Experimental data: patent US7772241B2, “Variolin derivatives and their use as antitumor agents” (Pharma Mar S.A., priority 2001, dated 2010)
Like-named read-outs stand apart in the source and are kept apart here.

Key:
K-562 = assay: Inhibition of cells growth by colorimetric (SRB) assay, K-562
Method in brief: (§1)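 Human tumour cells in RPMI 1640 with 10% FBS were seeded at 5×10^3 cells/well, allowed to attach for 18 h, then exposed to samples at 10 to 10^−8 μg/ml for 48 h. Growth was measured by SRB staining after TCA fixation, with absorbance read at 490 nm in triplicate wells.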

A-549 = assay: Inhibition of cells growth by colorimetric (SRB) assay, A-549
Method in brief: as §1

SK-MEL-28 = assay: Inhibition of cells growth by colorimetric (SRB) assay, SK-MEL-28
Method in brief: as §1

HT-29 = assay: Inhibition of cells growth by colorimetric (SRB) assay, HT-29
Method in brief: as §1

LoVo = assay: Inhibition of cells growth by colorimetric (SRB) assay, LoVo
Method in brief: as §1

LoVo-Dox = assay: Inhibition of cells growth by colorimetric (SRB) assay, LoVo-Dox
Method in brief: as §1

DU-145 = assay: Inhibition of cells growth by colorimetric (SRB) assay, DU-145
Method in brief: as §1

LNCaP = assay: Inhibition of cells growth by colorimetric (SRB) assay, LNCaP
Method in brief: as §1

SK-BR-3 = assay: Inhibition of cells growth by colorimetric (SRB) assay, SK-BR-3
From the text: (§2) The finality of these assays is to interrupt the growth of a “in vitro” tumor cell culture by means a continued exhibition of the cells to the sample to be testing.
(§3) This form of the assay employs 96 well cell culture microplates of 9 mm diameter (Faircloth, 1988; Mosmann, 1983). Most of the cell lines are obtained from American Type Culture Collection (ATCC) derived from different human cancer types.
(§4) Cells are maintained in RPMI 1640 10% FBS, supplemented with 0.1 g/l penicillin and 0.1 g/l streptomycin sulphate and then incubated at 37° C., 5% CO2 and 98% humidity. For the experiments, cells were harvested from subconfluent cultures using trypsin and resuspended in fresh medium before plating.
(§5) Cells are seeded in 96 well microtiter plates, at 5×10^3 cells per well in aliquots of 195 μl medium, and they are allowed to attach to the plate surface by growing in drug free medium for 18 hours. Afterward, samples are added in aliquots of 5 μl in a ranging from 10 to 10^−8 μg/ml, dissolved in DMSO/EtOH/PBS (0.5:0.5:99). After 48 hours exposure, the antitumor effect are measured by the SRB methodology: cells are fixed by adding 50 μl of cold 50% (wt/vol) trichloroacetic acid (TCA) and incubating for 60 minutes at 4° C. Plates are washed with deionized water and dried. One hundred μl of SRB solution (0.4% wt/vol in 1% acetic acid) is added to each microtiter well and incubated for 10 minutes at room temperature. Unbound SRB is removed by washing with 1% acetic acid. Plates are air dried and bound stain is solubilized with Tris buffer. Optical densities are read on a automated spectrophotometric plate reader at a single wavelength of 490 nm.
(§6) The values for mean +/−SD of data from triplicate wells are calculated. Some parameters for cellular responses can be calculated: GI=growth inhibition, TGI=total growth inhibition (cytostatic effect) and LC=cell killing (cytotoxic effect).

IGROV-1 = assay: Inhibition of cells growth by colorimetric (SRB) assay, IGROV-1
Method in brief: as §1

IGROV-ET = assay: Inhibition of cells growth by colorimetric (SRB) assay, IGROV-ET
Method in brief: as §1

SK-OV-3 = assay: Inhibition of cells growth by colorimetric (SRB) assay, SK-OV-3
Method in brief: as §1

PANC-1 = assay: Inhibition of cells growth by colorimetric (SRB) assay, PANC-1
Method in brief: as §1

HMEC1 = assay: Inhibition of cells growth by colorimetric (SRB) assay, HMEC1; conditions: SRB assay, 48 hours exposure; for TGI H-MEC-1: in M (unit assumed); for GI50: read-out: GI50 H-MEC-1; for CC50: read-out: LC50 H-MEC-1
From the text: as §2, §3, §4, §5, §6

[1] = read-out: GI50 A-549, SRB assay, 48 hours exposure

Nc1nccc(-c2c3cc4ccccc4nc3n3c(N)nccc23)n1 [Compound 19a]
TGI K-562 (K-562; SRB assay, 48 hours exposure): 6.42E−06
GI50 (K-562; read-out: GI50 K-562, SRB assay, 48 hours exposure): 1.78 µM
CC50 (K-562; read-out: LC50 K-562, SRB assay, 48 hours exposure): 25 µM
TGI A-549 (A-549; SRB assay, 48 hours exposure): 7.64E−06
GI50 (A-549; [1]): 3.24 µM
CC50 (A-549; read-out: LC50 A-549, SRB assay, 48 hours exposure): 18 µM
TGI MEL-28 (SK-MEL-28; SRB assay, 48 hours exposure): 5.16E−06
GI50 (SK-MEL-28; read-out: GI50 MEL-28, SRB assay, 48 hours exposure): 1.46 µM
CC50 (SK-MEL-28; read-out: LC50 MEL-28, SRB assay, 48 hours exposure): 13.1 µM
TGI HT-29 (HT-29; SRB assay, 48 hours exposure): 3.05E−05
GI50 (HT-29; read-out: GI50 HT-29, SRB assay, 48 hours exposure): 1.94 µM
TGI LOVO (LoVo; SRB assay, 48 hours exposure): 2.74E−06
GI50 (LoVo; read-out: GI50 LOVO, SRB assay, 48 hours exposure): 0.467 µM
CC50 (LoVo; read-out: LC50 LOVO, SRB assay, 48 hours exposure): 11.1 µM
TGI LOVO-DOX (LoVo-Dox; SRB assay, 48 hours exposure): 7.51E−06
GI50 (LoVo-Dox; read-out: GI50 LOVO-DOX, SRB assay, 48 hours exposure): 1.03 µM
TGI DU-145 (DU-145; SRB assay, 48 hours exposure): 7.94E−07
GI50 (DU-145; read-out: GI50 DU-145, SRB assay, 48 hours exposure): 0.00305 µM
CC50 (DU-145; read-out: LC50 DU-145, SRB assay, 48 hours exposure): 3.79 µM
TGI LN-caP (LNCaP; SRB assay, 48 hours exposure): 2.18E−06
GI50 (LNCaP; read-out: GI50 LN-caP, SRB assay, 48 hours exposure): 0.736 µM
CC50 (LNCaP; read-out: LC50 LN-caP, SRB assay, 48 hours exposure): 22.5 µM
TGI SK-BR-3 (SK-BR-3; SRB assay, 48 hours exposure): 1.68E−06
GI50 (SK-BR-3; read-out: GI50 SK-BR-3, SRB assay, 48 hours exposure): 0.477 µM
CC50 (SK-BR-3; read-out: LC50 SK-BR-3, SRB assay, 48 hours exposure): 8.58 µM
TGI IGROV (IGROV-1; SRB assay, 48 hours exposure): 9.56E−06
GI50 (IGROV-1; read-out: GI50 IGROV, SRB assay, 48 hours exposure): 1.85 µM
TGI IGROV-ET (IGROV-ET; SRB assay, 48 hours exposure): 4.98E−06
GI50 (IGROV-ET; read-out: GI50 IGROV-ET, SRB assay, 48 hours exposure): 1.41 µM
CC50 (IGROV-ET; read-out: LC50 IGROV-ET, SRB assay, 48 hours exposure): 14.5 µM
TGI SKOV-3 (SK-OV-3; SRB assay, 48 hours exposure): 4.67E−06
GI50 (SK-OV-3; read-out: GI50 SKOV-3, SRB assay, 48 hours exposure): 1.14 µM
CC50 (SK-OV-3; read-out: LC50 SKOV-3, SRB assay, 48 hours exposure): 21.8 µM
TGI PANC-1 (PANC-1; SRB assay, 48 hours exposure): 1.41E−05
GI50 (PANC-1; read-out: GI50 PANC-1, SRB assay, 48 hours exposure): 3.45 µM
TGI H-MEC-1 (HMEC1): 6.72E−07
GI50 (HMEC1): 0.123 µM
CC50 (HMEC1): 3.82 µM

COc1cccc(-c2c3cccnc3n3c(N)nccc23)c1 [Compound 62]
A-549 TGI (A-549; SRB assay, 48 hours exposure): 3.44E−05
CC50 (A-549; read-out: A-549 LC50, SRB assay, 48 hours exposure): 34.4 µM
GI50 (A-549; [1]): 34.4 µM
HT-29 TGI (HT-29; SRB assay, 48 hours exposure): 3.44E−05
GI50 (HT-29; read-out: HT-29 GI50, SRB assay, 48 hours exposure): 34.4 µM
CC50 (HT-29; read-out: HT-29 LC50, SRB assay, 48 hours exposure): 34.4 µM
TGI H-MEC-1 (HMEC1): 3.44E−05
GI50 (HMEC1): 34.4 µM
CC50 (HMEC1): 34.4 µM

COc1nccc(-c2c3c(O)ccnc3n3c(N)nccc23)n1 [Compound 105]
GI50 (K-562; Homo sapiens, K562, 48 h, read-out: GI50 K-562, SRB assay, 48 hours exposure): 12.8 µM
CC50 (K-562; Homo sapiens, K562, 48 h, read-out: LC50 K-562, SRB assay, 48 hours exposure): 32.4 µM
TGI K-562 (K-562; SRB assay, 48 hours exposure): 2.93E−05
GI50 (A-549; Homo sapiens, A549, 48 h, read-out: GI50 A-549, SRB assay, 48 hours exposure): 7.49 µM
CC50 (A-549; Homo sapiens, A549, 48 h, read-out: LC50 A-549, SRB assay, 48 hours exposure): 32.4 µM
TGI A-549 (A-549; SRB assay, 48 hours exposure): 3.24E−05
GI50 (SK-MEL-28; Homo sapiens, SK-MEL-28, 48 h, read-out: GI50 MEL-28, SRB assay, 48 hours exposure): 13.8 µM
CC50 (SK-MEL-28; Homo sapiens, SK-MEL-28, 48 h, read-out: LC50 MEL-28, SRB assay, 48 hours exposure): 32.4 µM
TGI MEL-28 (SK-MEL-28; SRB assay, 48 hours exposure): 3.24E−05
GI50 (HT-29; Homo sapiens, HT-29, 48 h, read-out: GI50 HT-29, SRB assay, 48 hours exposure): 32.4 µM
CC50 (HT-29; Homo sapiens, HT-29, 48 h, read-out: LC50 HT-29, SRB assay, 48 hours exposure): 32.4 µM
TGI HT-29 (HT-29; SRB assay, 48 hours exposure): 3.24E−05
GI50 (LoVo; Homo sapiens, LoVo, 48 h, read-out: GI50 LOVO, SRB assay, 48 hours exposure): 14.3 µM
CC50 (LoVo; Homo sapiens, LoVo, 48 h, read-out: LC50 LOVO, SRB assay, 48 hours exposure): 32.4 µM
TGI LOVO (LoVo; SRB assay, 48 hours exposure): 3.24E−05
GI50 (LoVo-Dox; Homo sapiens, 48 h, read-out: GI50 LOVO-DOX, SRB assay, 48 hours exposure): 21.9 µM
CC50 (LoVo-Dox; Homo sapiens, 48 h, read-out: LC50 LOVO-DOX, SRB assay, 48 hours exposure): 32.4 µM
TGI LOVO-DOX (LoVo-Dox; SRB assay, 48 hours exposure): 3.24E−05
GI50 (DU-145; Homo sapiens, DU-145, 48 h, read-out: GI50 DU-145, SRB assay, 48 hours exposure): 14.2 µM
CC50 (DU-145; Homo sapiens, DU-145, 48 h, read-out: LC50 DU-145, SRB assay, 48 hours exposure): 32.4 µM
TGI DU-145 (DU-145; SRB assay, 48 hours exposure): 3.24E−05
GI50 (LNCaP; Homo sapiens, LNCaP, 48 h, read-out: GI50 LN-caP, SRB assay, 48 hours exposure): 5.48 µM
CC50 (LNCaP; Homo sapiens, LNCaP, 48 h, read-out: LC50 LN-caP, SRB assay, 48 hours exposure): 32.4 µM
TGI LN-caP (LNCaP; SRB assay, 48 hours exposure): 1.75E−05
GI50 (SK-BR-3; Homo sapiens, SK-BR-3, 48 h, read-out: GI50 SK-BR-3, SRB assay, 48 hours exposure): 2.42 µM
CC50 (SK-BR-3; Homo sapiens, SK-BR-3, 48 h, read-out: LC50 SK-BR-3, SRB assay, 48 hours exposure): 32.4 µM
TGI SK-BR-3 (SK-BR-3; SRB assay, 48 hours exposure): 1.26E−05
GI50 (IGROV-1; Homo sapiens, IGROV-1, 48 h, read-out: GI50 IGROV, SRB assay, 48 hours exposure): 6.26 µM
CC50 (IGROV-1; Homo sapiens, IGROV-1, 48 h, read-out: LC50 IGROV, SRB assay, 48 hours exposure): 27.5 µM
TGI IGROV (IGROV-1; SRB assay, 48 hours exposure): 1.31E−05
GI50 (IGROV-ET; Homo sapiens, 48 h, read-out: GI50 IGROV-ET, SRB assay, 48 hours exposure): 8.17 µM
CC50 (IGROV-ET; Homo sapiens, 48 h, read-out: LC50 IGROV-ET, SRB assay, 48 hours exposure): 32.4 µM
TGI IGROV-ET (IGROV-ET; SRB assay, 48 hours exposure): 2.23E−05
GI50 (SK-OV-3; Homo sapiens, SK-OV-3, 48 h, read-out: GI50 SKOV-3, SRB assay, 48 hours exposure): 8.14 µM
CC50 (SK-OV-3; Homo sapiens, SK-OV-3, 48 h, read-out: LC50 SKOV-3, SRB assay, 48 hours exposure): 32.4 µM
TGI SKOV-3 (SK-OV-3; SRB assay, 48 hours exposure): 2.91E−05
GI50 (PANC-1; Homo sapiens, PANC-1, 48 h, read-out: GI50 PANC-1, SRB assay, 48 hours exposure): 11.8 µM
CC50 (PANC-1; Homo sapiens, PANC-1, 48 h, read-out: LC50 PANC-1, SRB assay, 48 hours exposure): 32.4 µM
TGI PANC-1 (PANC-1; SRB assay, 48 hours exposure): 3.24E−05
